In PubChem BioAssay AID248 (DTP/NCI, 2004):
“And” between values parts separate entries of the source, which are not always exact repeats. Equal entries are not always repeated. Toxic doses and inconclusive results are not listed. No stated cut-off is given here; in the data, active means T/C of 150% or more; inactive means T/C below 125%.

Test system: L1210 leukemia ip in BDF1 mice, survival T/C
Experiment: NCI In Vivo Anticancer Drug Screen. Data for tumor model L1210 Leukemia (intraperitoneal) in B6D2F1 (BDF1) mice
Details: endpoint: mean survival time, higher = longer survival
Outline: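 Value reflects the ratio of survival in compound-treated mice to survival in vehicle-treated controls, with both groups carrying the same transplanted tumor.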

[1] = dose: 100.0 mg/kg/injection, schedule: Q01DX001 (ip), vehicle: Klucel (hydroxypropylcellulose) (HPC)
[2] = dose: 100.0 mg/kg/injection, schedule: Q01DX009 (ip), vehicle: Klucel (hydroxypropylcellulose) (HPC)
[3] = dose: 100.0 mg/kg/injection, schedule: Q04DX003 (ip), vehicle: Klucel (hydroxypropylcellulose) (HPC)
[4] = dose: 200.0 mg/kg/injection, schedule: Q01DX001 (ip), vehicle: Klucel (hydroxypropylcellulose) (HPC)
[5] = dose: 200.0 mg/kg/injection, schedule: Q01DX009 (ip), vehicle: Klucel (hydroxypropylcellulose) (HPC)
[6] = dose: 200.0 mg/kg/injection, schedule: Q04DX003 (ip), vehicle: Klucel (hydroxypropylcellulose) (HPC)
[7] = dose: 400.0 mg/kg/injection, schedule: Q01DX001 (ip), vehicle: Klucel (hydroxypropylcellulose) (HPC)
[8] = dose: 400.0 mg/kg/injection, schedule: Q01DX009 (ip), vehicle: Klucel (hydroxypropylcellulose) (HPC)
[9] = dose: 400.0 mg/kg/injection, schedule: Q04DX003 (ip), vehicle: Klucel (hydroxypropylcellulose) (HPC)
[10] = dose: 100.0 mg/kg/injection, schedule: Q01DX001 (ip), vehicle: saline
[11] = dose: 200.0 mg/kg/injection, schedule: Q01DX001 (ip), vehicle: saline
[12] = dose: 400.0 mg/kg/injection, schedule: Q01DX001 (ip), vehicle: saline
[13] = dose: 100.0 mg/kg/injection, schedule: Q04DX003 (ip), vehicle: saline with Tween-80
[14] = dose: 200.0 mg/kg/injection, schedule: Q04DX003 (ip), vehicle: saline with Tween-80
[15] = dose: 400.0 mg/kg/injection, schedule: Q04DX003 (ip), vehicle: saline with Tween-80
[16] = dose: 100.0 mg/kg/injection, schedule: Q04DX002 (ip), vehicle: Klucel (hydroxypropylcellulose) (HPC)
[17] = dose: 200.0 mg/kg/injection, schedule: Q04DX002 (ip), vehicle: Klucel (hydroxypropylcellulose) (HPC)
[18] = dose: 100.0 mg/kg/injection, schedule: Q01DX009 (ip), vehicle: saline with Tween-80
[19] = dose: 200.0 mg/kg/injection, schedule: Q01DX009 (ip), vehicle: saline with Tween-80

Measured: T/C

Clc1ccc(S/C=C/c2ccccc2)cc1
inactive: [1] 103 % of control | [2] 91 % of control | [3] 102 % of control | [4] 110 % of control | [5] 100 % of control | [6] 98 % of control | [7] 97 % of control | [8] 91 % of control | [9] 104 % of control

O=C(OC1CC=CCC1)c1ccc([N+](=O)[O-])cc1 (configuration not stated)
inactive: [1] 86 % of control | [4] 98 % of control | [7] 96 % of control

Cc1ccc([P+](=O)O)cc1Cl
inactive: [10] 100 % of control | [11] 93 % of control | [12] 88 % of control

CC(=O)/C(N=Nc1ccccc1)=C(\C)O
inactive: dose: 50.0 mg/kg/injection, schedule: Q01DX001 (ip), vehicle: carboxymethylcellulose (CMC) 90 % of control | dose: 50.0 mg/kg/injection, schedule: Q01DX009 (sc), vehicle: olive oil, sesame oil, peanut oil 113 % of control | dose: 100.0 mg/kg/injection, schedule: Q01DX001 (ip), vehicle: carboxymethylcellulose (CMC) 97 % of control | dose: 100.0 mg/kg/injection, schedule: Q01DX009 (sc), vehicle: olive oil, sesame oil, peanut oil 113 % of control | dose: 200.0 mg/kg/injection, schedule: Q01DX001 (ip), vehicle: carboxymethylcellulose (CMC) 87 % of control | dose: 200.0 mg/kg/injection, schedule: Q01DX009 (sc), vehicle: olive oil, sesame oil, peanut oil 101 % of control | dose: 400.0 mg/kg/injection, schedule: Q01DX001 (ip), vehicle: carboxymethylcellulose (CMC) 95 % of control

CCN(CC)CCOc1cc(C)c2cc(Cc3ccccc3)ccc2n1
inactive: dose: 100.0 mg/kg/injection, schedule: Q01DX001 (ip), vehicle: other 104 % of control | dose: 200.0 mg/kg/injection, schedule: Q01DX001 (ip), vehicle: other 96 % of control

COc1cc(C(C)=O)cc(OC)c1Oc1cc(OC)c(OC)c(OC)c1C(C)=O
inactive: [13] 95 % of control | [14] 97 % of control | [15] 101 % of control

O=C(NCCCl)NC1CCC(O)CC1 (configuration not stated)
inactive: dose: 100.0 mg/kg/injection, schedule: Q04DX003 (ip), vehicle: saline 107 % of control | dose: 200.0 mg/kg/injection, schedule: Q04DX003 (ip), vehicle: saline 100 % of control | dose: 400.0 mg/kg/injection, schedule: Q04DX003 (ip), vehicle: saline 100 % of control

CCOC(=O)CC1CCC/C1=N/O (configuration not stated)
inactive: dose: 75.0 mg/kg/injection, schedule: Q01DX009 (sc), vehicle: olive oil, sesame oil, peanut oil 98 % of control | dose: 150.0 mg/kg/injection, schedule: Q01DX009 (sc), vehicle: olive oil, sesame oil, peanut oil 94 % of control | dose: 300.0 mg/kg/injection, schedule: Q01DX009 (sc), vehicle: olive oil, sesame oil, peanut oil 100 % of control

NC(CSS(=O)(=O)O)=NCc1cccnc1
inactive: [16] 89 % of control | [17] 105 % of control

Cc1cc(-c2ccc(NC(=O)N(C)CCC#N)c(C)c2)ccc1NC(=O)N(C)CCC#N
inactive: dose: 100.0 mg/kg/injection, schedule: Q01DX009 (ip), vehicle: other 88 % of control | dose: 200.0 mg/kg/injection, schedule: Q01DX009 (ip), vehicle: other 97 % of control | dose: 400.0 mg/kg/injection, schedule: Q01DX009 (ip), vehicle: other 100 % of control

Cc1ccc(CNc2ccc(Cl)cc2)cc1
inactive: [2] 95 % of control | [3] 96 % of control | [5] 104 % of control | [6] 98 % of control | [9] 96 % of control

CCCCCCN(CCCCCC)C(=S)[S-].CCCCCCN(CCCCCC)C(=S)[S-].[Zn]
inactive: dose: 75.0 mg/kg/injection, schedule: Q01DX001 (ip), vehicle: saline 112 % of control | dose: 150.0 mg/kg/injection, schedule: Q01DX001 (ip), vehicle: saline 104 % of control | dose: 300.0 mg/kg/injection, schedule: Q01DX001 (ip), vehicle: saline 103 % of control

CCCN=C(C)c1ccccc1O
inactive: dose: 100.0 mg/kg/injection, schedule: Q04DX003 (ip), vehicle: acetone 97 % of control | dose: 200.0 mg/kg/injection, schedule: Q04DX003 (ip), vehicle: acetone 95 % of control

CC(=O)OCCS(=O)(=O)c1c(Cl)c(Cl)c(Cl)c(Cl)c1Cl
inactive: [16] 95 % of control | [17] 88 % of control

COc1ccc(C)cc1NC(=O)OCCOc1ccc([N+](=O)[O-])cc1
inactive: dose: 50.0 mg/kg/injection, schedule: Q01DX009 (ip), vehicle: saline with Tween-80 93 % of control | [18] 97 % of control | [19] 93 % of control

NNC(=O)c1ccccc1NCCO
inactive: [10] 101 % of control | [11] 97 % of control | [12] 101 % of control

O=c1c[n+](Cc2ccc(Cl)cc2)[nH]o1
inactive: dose: 100.0 mg/kg/injection, schedule: Q01DX Z (ip), vehicle: saline 100 % of control | dose: 200.0 mg/kg/injection, schedule: Q01DX Z (ip), vehicle: saline 100 % of control

O=C(Nc1nc(Cl)nc(Cl)n1)N1CCOCC1
inactive: dose: 12.5 mg/kg/injection, schedule: Q04DX003 (ip), vehicle: saline with Tween-80 95 % of control | dose: 25.0 mg/kg/injection, schedule: Q01DX009 (ip), vehicle: saline with Tween-80 113 % of control | dose: 25.0 mg/kg/injection, schedule: Q04DX003 (ip), vehicle: saline with Tween-80 101 % of control

NC(=S)c1ccccc1N
inactive: dose: 15.0 mg/kg/injection, schedule: Q01DX Z (ip), vehicle: methylcellulose (MC) 110 % of control | dose: 30.0 mg/kg/injection, schedule: Q01DX Z (ip), vehicle: methylcellulose (MC) 98 % of control | dose: 60.0 mg/kg/injection, schedule: Q01DX Z (ip), vehicle: methylcellulose (MC) 101 % of control | dose: 120.0 mg/kg/injection, schedule: Q01DX Z (ip), vehicle: methylcellulose (MC) 115 % of control

CNC(=O)C1C2C=CC(C2)C1C(=O)NC (configuration not stated)
inactive: [13] 93 % of control and 100 % of control and 87 % of control | [14] 96 % of control and 100 % of control and 106 % of control | [15] 93 % of control and 100 % of control (2×)

Cc1ccc([N+](=O)[O-])cc1N=C=O
inactive: [2] 87 % of control | [3] 96 % of control | [5] 91 % of control | [6] 97 % of control | [8] 97 % of control | [9] 97 % of control

CCCCCC(C)C(=O)CCCC (configuration not stated) (tested in a mixture with another compound)
inactive: [13] 106 % of control | [14] 97 % of control | [15] 86 % of control

O=C1OC(c2ccccc2)(c2ccccc2)c2cccc3cccc1c23
inactive: [18] 101 % of control | [19] 95 % of control | dose: 400.0 mg/kg/injection, schedule: Q01DX009 (ip), vehicle: saline with Tween-80 91 % of control

COc1cc(C=Nc2ccc(Cl)cc2)ccc1OC(=O)c1ccccc1
inactive: dose: 100.0 mg/kg/injection, schedule: Q04DX002 (ip), vehicle: saline with Tween-80 91 % of control | dose: 200.0 mg/kg/injection, schedule: Q04DX002 (ip), vehicle: saline with Tween-80 87 % of control
